Assay results: article PMC11079024, “Identification of a family of species-selective complex I inhibitors as potential anthelmintics” (Nature Communications, 2024)
Read-outs that look alike come from different tables or passages of the source.

What was measured:
[1] = biological target: B. taurus (heart) complex I (Bos taurus, UniProt P03887+P17694+P42026); assay: biochemical; assay type: biochemical; conditions: for IC50: B. taurus heart mitochondria, read-out: B. taurus Complex I IC50; for Log IC50 B. taurus complex I: log10 of IC50 in µM, B. taurus mitochondria
Method: Six 8–10-week-old C57Bl/6 female mice (Charles River) were freshly dissected, and their livers and hearts collected into separate 1.5 mL microcentrifuge tubes. Organs were flash-frozen in liquid nitrogen and stored at −80 °C prior to use. The heart of a freshly slaughtered adult cow was obtained from a local abattoir (Peel Sausage Inc.), chopped into ~1-inch cubes and collected into 50 mL falcon tubes. Falcon tubes were flash-frozen in a container of dry ice and stored at −80 °C prior to use. Isolation of mitochondria from all mammalian tissue was carried out following the protocol described above. However, due to size, the initial homogenization of tissue was performed by 15 strokes in a dounce homogenizer (mouse heart) or with several 5 s pulses in small Nutribullet blender (cow heart). All mouse protocols for mouse care and dissection were reviewed and approved by the University of Toronto Animal Care Committee, in accordance with the Canadian Council on Animal Care.
(§1) The enzymatic activities of individual ETC complexes (I-IV) were assessed spectrophotometrically in isolated mitochondria using a Varioskan LUX Multimode plate reader (ThermoFisher Scientific). Mitochondrial pellets previously isolated were thawed on ice and resuspended in ice-cold isolation buffer (250 mM sucrose, 10 mM Tris (pH 7.5), 1 mM EDTA). The BCA assay (Walker, 1994) was used to quantify the protein concentration of mitochondria suspensions; solutions were diluted to a concentration of 0.2 mg/mL for use in all assays. For the complex I assay, mitochondria pellets were freeze-thawed on ice three times to increase enzyme accessibility. […] 20 μL mitochondria suspension was then added/mixed with a pipette to initiate the reaction. Immediately following the addition of mitochondria, absorbance was measured (complex I and II: 600 nm; complex III and IV: 550 nm) in 30 s intervals over 15 min. Enzymatic activity was determined in each reaction by plotting absorbance versus time and calculating the slope of the curve during the initial linear phase of the reaction. […] Percent activity of each complex was calculated by dividing the enzyme-specific activity of each well by the enzyme-specific activity of the corresponding solvent controls.
(§2) Chemical solutions were prepared in complex I assay buffer composed of 25 mM KPi buffer (pH 7.5), 3 mg/mL bovine serum albumin (BSA), 80 μM NADH, 60 μM decylubiquinone, 160 μM DCIP, 2 μM antimycin A and 2 mM KCN.
For preliminary screens of hit compounds, compounds were screened at 100 μM; data are the average of at least three biological replicates. The complex I and II activity assays were used for additional dose-response experiments. […] For dose responses of benzimidazole analogs, data represent the average of two biological replicates. For all other dose-responses, data represent the average of at least three biological replicates.

L1 wild-type C. elegans [2] = conditions: for Relative Motility: relative to DMSO controls, single biological replicate
in vitro = conditions: human
[3] = biological target: C. elegans (N2) complex I (NADH:ubiquinone oxidoreductase) (Caenorhabditis elegans, UniProt P24887+Q93873+Q94360); assay: biochemical; assay type: biochemical; conditions: for Log IC50 C. elegans complex I: log10 of IC50 in µM, C. elegans mitochondria
Method: Mitochondria were isolated from the following free-living nematode strains: C. elegans—N2, CB3474, ECA882, ECA917, ECA1075, ECA1080; C. briggsae—AF16; P. pacificus—PS312; and P. hermaphrodita—B178. With the exception of the P. hermaphrodita strain B178, adult worms of each strain were grown in bulk through liquid culture to obtain mitochondria in sufficient quantities. Due to poor growth in liquid media, mixed stage populations of P. hermaphrodita were washed off and collected from NGM plates seeded with OP50. The isolation of mitochondria from all free-living nematode strains followed the protocol previously outlined in Burns et al.[24]. In brief, a 1 L saturated culture of E. coli HB101 was concentrated 20-fold in 50 mL complete S-medium. ~500,000 L1 worms synchronized from an embryo preparation performed the day prior were added to the S-media/HB101 suspension and grown to adulthood over the course of 3.5 days at 20 °C with shaking at 165 rpm. Following growth, worms were collected in 10 ×15 mL conical tubes and washed 7 times in M9 buffer. Worm suspensions were then combined into a single 15 mL conical tube and diluted to a final volume of 15 mL with M9 buffer. 1 mL aliquots of worm suspension were then distributed to 15 × 1.5 mL screw-cap microcentrifuge tubes and were pelleted at 500 g for 1 min. Excess M9 was aspirated without disturbing the worm pellet. 600 μL ice-cold isolate buffer A (250 mM sucrose, 10 mM Tris (pH 7.5), 1 mM EDTA, 1 mM PMSF (freshly prepared)) and 300 μL cold glass beads were then added to each tube. Tubes were incubated on ice for 10 min, and the worms were then lysed by bead beating (6 x 30 s, with 1 min cooling intervals). Tubes containing worm lysate were centrifuged at 1,000 g for 10 min at 4 °C and the supernatant was transferred to 15 new microcentrifuge tubes on ice. The tubes were centrifuged a second time at 1,000 g for 10 min at 4 °C and the supernatant was once again transferred to 15 new microcentrifuge tubes on ice. These tubes were then centrifuged at 16,000 g for 10 min at 4 °C. The resulting mitochondrial pellet was washed twice by re-suspension in 300 μL of ice-cold isolate buffer B (250 mM sucrose, 10 mM Tris (pH 7.5), 1 mM EDTA). Following the final wash, isolation buffer was aspirated from each tube and the pellets were flash-frozen in ethanol/dry ice and stored at −80 °C until needed.
as §1, §2
For preliminary screens of hit compounds, compounds were screened at 100 μM; data are the average of at least three biological replicates.

[4] = system: ben-1 mutant (ECA882) C. elegans; assay: microbe, parasite or virus in culture; conditions: Caenorhabditis elegans
Method: Liquid development and viability assays were adapted from a previously established chemical screening protocol (Burns et al.)[24]. In brief, a saturated culture of E. coli HB101 was concentrated 2-fold in liquid NGM and 40 μL of this suspension was distributed to each well of a 96-well flat-bottom culture plate. 0.5 μL chemical solution (or DMSO alone) was added to each well (1% DMSO v/v) using either a multi-channel pipette or a pinning tool (V&P Scientific). L1 worms synchronized from an embryo preparation performed the day prior were diluted to a concentration of ~2 worms/μL in M9 buffer; 10 μL worm suspension was then added to each well. Culture plates were sealed with parafilm and placed in a plastic container lined with wet paper towels to prevent evaporation. Containers were then incubated for 6 days at 20 °C with shaking at 165 rpm. Following incubation, 300 μL M9 was added to each well to decrease the turbidity of the HB101-NGM suspension. Single images of each microplate well were then taken on a Nikon Ti Eclipse inverted microscope (Nikon NIS Elements AR). Images were processed using Python scripts to isolate worm-associated pixels from background. Scores of worm development and viability were determined as the sum of worm-associated pixels in each well. Development/viability scores for each well were divided by the development /viability scores for the corresponding DMSO controls, resulting in a relative viability value for each chemical. At least three biological replicates were performed for each dose-response experiment; relative viability values were averaged across replicates. […]
anthelmintics. a. Chemical structures of four commercial benzimidazole anthelmintics (e.g., albendazole, […]
Dose response of four commercial […]
elegans strains: N2, wild type; ECA882, deletion (ben-1); ECA917, F200Y (ben-1); ECA1075, F167Y (ben-1); ECA1080, E198A (ben-1); CB3474, G104D (ben-1). The colour-coded scale denotes the phenotypic outcome of drug treatment (e.g., motility or viability) relative to DMSO controls; white/pale- […]
death and arrested development. c. […]
benzimidazole anthelmintics (blue) were conducted in C. elegans development and viability assays for wild type (N2) and ben-1 mutant (ECA882) C. elegans (see Supplementary Date File 1).
All data used for generation of dose-response curves is the mean of at least three […]
Supplementary Figure 7 (continued). Davie et al.

L1 wild-type C. elegans [5] = assay: microbe, parasite or virus in culture; conditions: Caenorhabditis elegans, read-out: C. elegans KCN Survival Assay LC50, estimated from fitted dose-response curves; mean of at least two biological replicates
[6] = 50 μM compound, hit = relative motility below 0.25 3 hours after removal of KCN
[7] = in vitro complex I dose response on C. elegans mitochondria, average of at least two biological replicates, fit in R (DRC), read-out: IC50 C. elegans complex I
[8] = wild-type C. elegans mitochondria, estimated from fitted dose-response curves, read-out: C. elegans Complex I IC50
[9] = read-out: C. elegans (ben-1) Development & Viability Assay LC50
[10] = read-out: C. elegans ben-1 log10 LC50 (converted)
[11] = wild-type C. elegans mitochondria, read-out: C. elegans Complex I IC50
[12] = 50 μM, KCN survival assay, hit = relative motility below 0.25
[13] = 50 μM, worm motility 3 hours after the removal of KCN (endpoint)
[14] = 50 μM compound, worm motility 3 hours after removal of KCN
[15] = HEK293 Cell Viability Assay LC50, HEK293 cells, estimated from fitted dose-response curves, mean of at least two biological replicates

Sequence of B. taurus (heart) complex I (P03887 whole entry): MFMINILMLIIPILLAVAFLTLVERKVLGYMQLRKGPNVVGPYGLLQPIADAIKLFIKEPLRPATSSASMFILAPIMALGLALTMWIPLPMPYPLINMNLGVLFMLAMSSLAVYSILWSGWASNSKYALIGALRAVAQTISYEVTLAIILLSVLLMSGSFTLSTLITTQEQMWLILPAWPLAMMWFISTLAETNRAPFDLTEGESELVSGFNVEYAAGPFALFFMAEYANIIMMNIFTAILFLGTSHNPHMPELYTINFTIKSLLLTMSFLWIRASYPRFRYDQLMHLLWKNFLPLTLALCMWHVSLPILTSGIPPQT
Sequence of B. taurus (heart) complex I (P17694 34-463): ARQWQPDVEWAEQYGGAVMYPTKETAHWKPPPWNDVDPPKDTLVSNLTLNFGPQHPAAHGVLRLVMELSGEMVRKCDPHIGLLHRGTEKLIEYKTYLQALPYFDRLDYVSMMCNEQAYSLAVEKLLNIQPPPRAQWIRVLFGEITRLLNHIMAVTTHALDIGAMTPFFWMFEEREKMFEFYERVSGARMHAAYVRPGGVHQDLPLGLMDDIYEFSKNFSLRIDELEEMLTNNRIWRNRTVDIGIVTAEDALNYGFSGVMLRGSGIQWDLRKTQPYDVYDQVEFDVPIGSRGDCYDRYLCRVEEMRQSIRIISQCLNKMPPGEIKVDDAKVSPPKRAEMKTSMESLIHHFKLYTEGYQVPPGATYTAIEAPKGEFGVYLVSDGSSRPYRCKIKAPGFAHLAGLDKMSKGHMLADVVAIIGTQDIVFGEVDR
Sequence of B. taurus (heart) complex I (P42026 38-216): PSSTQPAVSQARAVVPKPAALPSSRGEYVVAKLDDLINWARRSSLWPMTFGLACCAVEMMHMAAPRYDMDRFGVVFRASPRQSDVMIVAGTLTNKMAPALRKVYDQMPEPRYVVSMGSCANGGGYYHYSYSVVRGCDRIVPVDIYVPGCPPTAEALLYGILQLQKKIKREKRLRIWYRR
Sequence of C. elegans (N2) complex I (NADH:ubiquinone oxidoreductase) (Q94360 17-199): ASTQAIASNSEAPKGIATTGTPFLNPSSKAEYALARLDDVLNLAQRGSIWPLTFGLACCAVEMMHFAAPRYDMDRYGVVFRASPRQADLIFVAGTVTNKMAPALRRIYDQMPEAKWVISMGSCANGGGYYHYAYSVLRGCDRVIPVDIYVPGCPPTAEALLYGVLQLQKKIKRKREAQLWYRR
Sequence of C. elegans (N2) complex I (NADH:ubiquinone oxidoreductase) (P24887 whole entry): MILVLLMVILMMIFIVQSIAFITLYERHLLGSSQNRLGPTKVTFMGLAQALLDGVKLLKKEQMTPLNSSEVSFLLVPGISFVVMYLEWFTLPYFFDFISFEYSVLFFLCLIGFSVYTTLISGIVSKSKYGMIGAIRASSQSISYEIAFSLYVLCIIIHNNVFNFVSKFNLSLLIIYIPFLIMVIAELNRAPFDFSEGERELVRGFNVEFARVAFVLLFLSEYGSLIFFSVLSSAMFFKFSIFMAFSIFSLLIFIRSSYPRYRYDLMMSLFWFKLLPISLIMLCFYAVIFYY
Sequence of C. elegans (N2) complex I (NADH:ubiquinone oxidoreductase) (Q93873 31-482): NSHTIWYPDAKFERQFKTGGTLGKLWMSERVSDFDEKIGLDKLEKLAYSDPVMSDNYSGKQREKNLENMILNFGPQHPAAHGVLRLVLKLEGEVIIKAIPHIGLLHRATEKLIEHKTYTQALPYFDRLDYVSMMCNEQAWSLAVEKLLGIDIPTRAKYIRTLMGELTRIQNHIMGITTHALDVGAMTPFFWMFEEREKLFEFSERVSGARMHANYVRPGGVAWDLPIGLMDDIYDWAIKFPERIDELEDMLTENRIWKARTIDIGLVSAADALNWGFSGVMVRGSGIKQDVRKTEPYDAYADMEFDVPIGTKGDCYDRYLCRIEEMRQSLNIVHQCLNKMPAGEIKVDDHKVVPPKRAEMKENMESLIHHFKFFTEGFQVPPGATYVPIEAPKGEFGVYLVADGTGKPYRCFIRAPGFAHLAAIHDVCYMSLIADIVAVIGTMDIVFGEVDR

Structure (SMILES) | IC50 ([1]; estimated from fitted dose-response curves) | Log IC50 B. taurus complex I [1] | Screen "Hit" (L1 wild-type C. elegans [2]; [6]) | CC50 at 2 days (in vitro) | IC50 [3, 7] | Log IC50 C. elegans complex I [3] | IC50 ([3]; wild-type (N2) mitochondria, read-out: C. elegans Complex I IC50) | IC50 [3, 8] | LC50 [4, 9] | LC50 [4, 10] | LC50 (L1 wild-type C. elegans [5]) | IC50 [1] | Hit (L1 wild-type C. elegans [2]; active or inactive at 50 μM in C. elegans assay of RQ-dependent metabolism) | CC50 at 2 days (in vitro; HEK293 Cell Viability Assay LC50, HEK293 cells, estimated from fitted dose-response curves) | IC50 [3, 11] | Screen "Hit" (L1 wild-type C. elegans [2]; [12]) | Relative Motility (L1 wild-type C. elegans [2]; [13]) | Relative Motility (L1 wild-type C. elegans [2]; [14]) | CC50 at 2 days (in vitro; [15]) | LC50 ([4]; read-out: C. elegans ben-1 LC50)
Cc1nc2ccccc2n1Cc1ccc(F)cc1 [Compound 7360886] | 4.54 µM | 0.66 µM | Y (hits were identified as compounds that reduced relative motility below 0.25 (75% reduction)) | > 100 µM | 0.93 µM | -0.03 µM | 0.93 µM | 0.93 µM | 170 µM | 169 µM | 27 µM |  |  |  |  |  |  |  |  | 
Nc1nc2ccccc2n1CCCOc1ccccc1 [Compound 7915320] |  | 1.19 µM |  |  | 6.9 µM | 0.84 µM |  |  | 150 µM | 150 µM | 23.7 µM | 15.6 µM | non | 60 µM | 6.9 µM |  |  |  |  | 
c1ccc2[nH]c(CSc3nc4ccccc4o3)nc2c1 [Compound 5668941] |  |  |  |  | 19.6 µM | 1.29 µM |  | 19.6 µM | 123 µM | 123 µM | 26.8 µM |  |  |  |  | Y (hits were identified as compounds that reduced relative motility below 0.25 (75% reduction)) | 0.130 |  |  | 
CCc1ccc(CNc2nc3ccccc3n2C)cc1 [STK498539] |  |  | Y (hits were identified as compounds that reduced relative motility below 0.25 (75% reduction)) |  | 40.8 µM | 1.61 µM |  |  | 214 µM | 214 µM | 30.5 µM |  |  |  | 40.8 µM |  |  | 0.042 |  | 
CCc1ccc(OC(C)c2nc3ccccc3[nH]2)cc1 (stereo not drawn) [STK914290] |  |  | Y (hits were identified as compounds that reduced relative motility below 0.25 (75% reduction)) |  | 71.3 µM | 1.85 µM |  |  | 227 µM | 228 µM | 22.4 µM |  |  |  | 71.3 µM |  |  | 0.082 |  | 
COc1ccccc1/C=C/c1nc2ccccc2[nH]1 [Compound 7148894] |  |  |  |  |  |  |  | > 75 µM | 188 µM | 188 µM | 9.02 µM |  |  |  |  | Y (hits were identified as compounds that reduced relative motility below 0.25 (75% reduction)) | 0.170 |  | < 12.5 µM | 
CCn1c(/C=C/c2ccc(F)cc2)nc2ccccc21 [Compound 7147614] |  |  |  |  |  |  |  | > 75 µM | 77 µM | 77.1 µM | 14.4 µM |  |  |  |  | Y (hits were identified as compounds that reduced relative motility below 0.25 (75% reduction)) | 0.130 |  | 41 µM | 
c1ccc(-c2noc(CCCCc3nc4ccccc4[nH]3)n2)cc1 [STK633241] |  | 1.27 µM | Y (hits were identified as compounds that reduced relative motility below 0.25 (75% reduction)) |  | 20.6 µM | 1.31 µM |  |  | > 1000 µM | > 500 µM | 19.4 µM | 18.5 µM |  |  | 20.6 µM |  |  |  |  | > 500 µM
C(=C\c1nc2ccccc2[nH]1)/c1ccccc1 [STK871091] |  |  | Y (hits were identified as compounds that reduced relative motility below 0.25 (75% reduction)) |  |  |  |  | > 75 µM | 148 µM | 148 µM | 15 µM |  |  |  |  |  |  | 0.008 |  | 
